Results as given in patent EP4364726A1, “METHOD FOR TREATING A CANCER AND/OR CANCER METASTASIS” (Nano Targeting & Therapy Biopharma Inc., priority 2022, dated 2024).

Legend:
[1] = tested on: luciferase-expressing HCT-116 cells; assay: Orthotopic colorectal cancer metastasis model (cells injected into cecum wall); type: in vivo, mice; conditions: orthotopic HCT-116-luc, 40 mg/kg twice per week, 8 administrations
Procedure: 2×10^6 luciferase-expressing HCT-116 cells were directly injected into the wall of the cecum with surgery to establish the orthotopic colorectal cancer metastasis model, this model spontaneously produces highly metastatic tumors in adjacent intestinal tissues, peritoneum, and distance metastasis (spleen, kidney, liver, and diaphragm). Tumor-bearing mice received IRI and IRI@NTT2_186k at dose levels of 40 mg/kg twice per week for a total of 8 administrations. The tumor growth and metastasis were observed by the IVIS system once a week and body weight was observed over the study period. To assess overall survival, animals were monitored up to the point of spontaneous death or approaching moribund status.

[2] = cited from earlier work
[3] = tested on: chicken embryo chorioallantoic membrane (CAM) tumor model; assay: Chorioallantoic membrane (CAM) analysis for angiogenesis; type: in vivo; conditions: administered on day 12, observed days 14 and 16
Procedure: To evaluate the effect of MSNs on tumor angiogenesis, chicken embryo chorioallantoic membrane (CAM) tumor model was used. The fertilized eggs were incubated in the incubator for 10 days, then a small window was opened in the eggshell and the cancer cells were implanted on the CAM membrane near the aorta. MSN or Doxorubicin (DOX) was administered on day 12 when the tumor was formed and the angiogenesis near the tumor was observed on days 14 and 16.

## CCc1c2c(nc3ccc(OC(=O)N4CCC(N5CCCCC5)CC4)cc13)-c1cc3c(c(=O)n1C2)COC(=O)[C@]3(O)CC [IRI, irinotecan]
[1]
  tumor course once treatment was discontinued: tumor relapse and tumor metastases were observed
  tumor growth rate: slower tumor growth rate compared to the control group
[1]; IVIS
  inhibition of primary tumor growth and metastases: inefficient inhibition of tumor growth and metastases
[2]
  pka: about 10.9

## COc1cccc2c1C(=O)c1c(O)c3c(c(O)c1C2=O)C[C@@](O)(C(=O)CO)C[C@@H]3O[C@H]1C[C@H](N)[C@H](O)[C@H](C)O1 [DOX, Doxorubicin]
[3]
  blood vessels near the tumor: blood vessels exhibited disintegration and decreased density
